From US8754121B2, “Use of deoxyelephantopin (DET) and analogues thereof for treatment of melanoma” (priority 2010, dated 2014)
Read-outs that look alike come from different tables or passages of the source.

How the values were obtained:
[1] = tested on: lung metastasis of B16 melanoma (B16-COX-2/Luc cells); test: Inhibition of lung metastasis of B16 cells in syngeneic mice, in vivo bioluminescence imaging; design: species or system C57BL/6J mice; settings: for mean bioluminescence intensity compared to tumor group (100%): Day 30; for remained bioluminescence intensity relative to tumor control group (100%): Day 21
Protocol: Stable B16 melanoma cell clone carrying COX-2 promoter driven-luciferase (pGL-COX-2/Luc) reporter gene plasmid was established. […] The B16-COX-2/Luc stable cell line was used in the mouse lung metastasis experiments.
After 10 minutes of incubation with luciferin, each mouse was placed in a right lateral decubitus position and a digital grayscale animal image was acquired using an IVIS spectrum (Xenogen Corp.). The acquisition and overlay of a pseudocolor image was taken, which represents the spatial distribution of detected photons emerging from active luciferase within the animals. Signal intensity was quantified using an IVIS Spectrum system (Xenogen Corp.) as the sum of all detected photons per second on Day 0, 7, 14, 18, 21, 23, 26 and 30 of treatment.

[2] = Day 21
Protocol: Female C57BL/6J mice (National Laboratory Animal Center, Tainan, Taiwan) were given a standard laboratory diet and distilled water ad libitum and kept on a 12-h light/dark cycle at 22±2° C. In total, 63 mice were randomly divided and assigned into 7 groups. Female C57BL/6J mice received an intravenous (i.v) injection with 1×10^5 B16 cells in 200 μL PBS through the tail vein at Day 0. On Day 1, mice were divided into tumor group, CP2 group, DET10 group, DET10+CP1 group, and CP2→DET10 group. The mice were treated intraperitoneally (i.p.) every two days with 2 mg/kg body weight (BW) cisplatin (CP2), 10 mg/kg BW DET (DET10), DET10 mixed with 1 mg/kg BW cisplatin (DET10+CP1), and with CP2 five times and DET10 five times, then CP2 and DET10 taking turns every two days till the end of the experiments (CP2→DET10 group), respectively. The Pre-DET10 group mice were treated i.p with DET (10 mg/kg BW) every two days two weeks before (Day 14) tumor cells inoculation on Day 0, and continuously treated with DET10 till the end of the experiment. The tumor control mice were treated with vehicle DMSO. The mice in the sham control group were injected i.p. with 20 μL DMSO on Day 1 every 2 days throughout the experimental period. […] On Day 21 post-tumor injection, three mice from each group were euthanized and blood collected for complete blood count (CBC) analysis.
Complete blood samples of test mice in each group on Day 21 were subjected to the analysis of white blood cell (WBC), neutrophil (N), monocyte (M), basophil (B) red blood cell (RBC), platelet (PLT), hemoglobin (Hb), and hematocrit (Ht) and other cell counts with a hemacytometer (FIG. 10).

B16 melanoma cells [3] = test: Migration and invasion assay (trans-well); assay type: cell-based, murine; settings: 24 h; for B16 melanoma cell invasion: Matrigel
Protocol: B16 cells (1×10^5 cells) were cultured in culture-inserts of boyden chamber (ibidi, Germany) for 12 h. The culture-inserts were removed and added DET or cisplatin alone or in combination for 24 h. B16 cells were added into a 24-transwell permeable plate (8.0 μm polycarbonate membrane, 6.5 mm insert; Corning Incorporated, Corning, N.Y.) coated with Matrigel basement membrane matrix. The bottom wells received 50 μL medium having the same concentration of serum as the top well, either 1% or 10% FBS. Cells were removed from the upper and lower sides of the filter after 24 h. The ratio of the counts obtained from the bottom versus total counts from both sides was used to determine migration and invasiveness. The invading cells remaining in the well were counted in six randomly chosen low-power fields at 100× original magnification by inverted fluorescence microscopy.

B16 cells = test: Time-lapse cell motility assay; assay type: cell-based, murine; settings: time-lapse videomicroscopy over 24 h, 3 μM DET, 40 μM CP, 3 μM DET plus 40 μM CP; for migration velocity of B16 cells: vehicle control 0.35±0.09; for migration distance of B16 cells: vehicle control 488.2±147.1
Protocol: Cell motility was assessed by time-lapse videomicroscopy. B16 cells were seeded in 6 cm dish for 3 h and maintained at constant temperature (37° C.) and 5% CO2 chamber throughout the experimental period. Cells were observed under an inverted microscope (Zeiss Axiovert 200M), and phase-contrast snap photographs (one frame every 30 min) were digitally recorded for 24 h. Cell paths were generated from centroid positions, and cell velocities of migration were analyzed using the tracking object of the Metamorph software (Molecular Device).

[4] = Histology, TUNEL and F4/80 immunostaining of kidney tissues
Protocol: (§1) Female C57BL/6J mice (National Laboratory Animal Center, Tainan, Taiwan) were given a standard laboratory diet and distilled water ad libitum and kept on a 12-h light/dark cycle at 22±2° C. In total, 63 mice were randomly divided and assigned into 7 groups. Female C57BL/6J mice received an intravenous (i.v) injection with 1×10^5 B16 cells in 200 μL PBS through the tail vein at Day 0. On Day 1, mice were divided into tumor group, CP2 group, DET10 group, DET10+CP1 group, and CP2→DET10 group. The mice were treated intraperitoneally (i.p.) every two days with 2 mg/kg body weight (BW) cisplatin (CP2), 10 mg/kg BW DET (DET10), DET10 mixed with 1 mg/kg BW cisplatin (DET10+CP1), and with CP2 five times and DET10 five times, then CP2 and DET10 taking turns every two days till the end of the experiments (CP2→DET10 group), respectively. The Pre-DET10 group mice were treated i.p with DET (10 mg/kg BW) every two days two weeks before (Day 14) tumor cells inoculation on Day 0, and continuously treated with DET10 till the end of the experiment. The tumor control mice were treated with vehicle DMSO. The mice in the sham control group were injected i.p. with 20 μL DMSO on Day 1 every 2 days throughout the experimental period.
Paraffin-embedded kidney tissues were prepared from three mice in each group on Day 21. The paraffin-embedded kidney was sectioned (4 μm) and underwent H&E staining. In situ apoptotic cells in kidney tissues were determined by TUNEL assay (Chemicon) and the mean proportions of positive TUNEL cells were measured using AxioVision software (Carl Zeiss MicroImaging, Inc.). Immunostaining of macrophage infiltration in the kidney tissues was performed using F4/80 antibody and visualized with goat anti-mouse Cy3-labeled secondary antibodies (Jackson ImmunoResearch), counterstained with DAPI (1 μg/mL).

[5] = for plasma BUN: groups CP2 and DET10+CP1
Protocol: as §1
The plasma BUN content, an indication of kidney function, was determined in test animals using QuantiChrom™ Urea Kit (BioAssay Systems).

[6] = Primary metabolome of kidney tissues by UPLC/ESI-Q-TOF MS; assay type: in vivo, C57BL/6J mice
Protocol: Primary metabolome in the kidney tissues of test mice with various treatments were analyzed using UPLC-QTOF MS. Kidney samples (150 mg) were homogenized with 600 μL methanol and 127.5 μL distilled water. The homogenates were vigorously mixed with 1.2 mL chloroform:H2O solution (1:1, v/v) and then put at −20° C. for 20 min. After centrifugation at 13000×g for 10 min at 4° C., the supernatant (water layer) was collected, dried in a vacuum, and then reconstituted in 100 μL of 50% methanol for analysis.
LC-MS was performed with a LC system (ACQUITY UPLC, Waters, Millford, Mass.) coupled to a hybrid Q-TOF mass spectrometer (Synapt HDMS, Waters, Manchester, U.K.). The sample was separated online with a reverse-phase column (HSS T3 C18, 1.8 μm, 2.1 mm×150 mm, Waters, Milford, Mass.) which was kept in a column oven at 40° C. The mobile phases for positive ion mode consisted of 0.1% formic acid in 2% ACN (buffer A) and 0.1% formic acid in 100% ACN (buffer B). The mobile phases for negative ion mode consisted of pure H2O (buffer A) and pure 100% AcCN (buffer B).
The mass spectrometer equipped with lock electrospray ionization probe was operated in both positive and negative (ESI) modes. The electrospray voltage was set at 3 kV for positive ion mode and −2.5 kV for negative ion mode, and the cone voltage was 40V. The cone and desolvation gas flow were 50 and 700 L/h, respectively. A lock mass calibration of sulfadimethoxin (0.5 mg/L) in water/MeOH (50:50, v/v) was introduce by the HPLC pump (LC-10ATVP, Shimadzu, Japan) and split the 5 μL/min to the lockspray probe. The acquisition method was set to one full MS scan (50-990 m/z) with 0.2 sec scan time in centroid data mode.
The UPLC-MS data were analyzed using MarkerLynx XS version 4.1 SCN639 (Waters, Millford, Mass.). In this application, the peaks in the 0.5-4 min LC-MS data were detected and the noise reduced in both LC and MS domains. The extracted peak information was also processed to remove the peak-to-peak noise, deisotope and filter the MS peak with the intensity lower than 50 counts. A list of the intensities of the processed peaks for each of the LC-MS data was generated using retention time (RT) and m/z data pairs as the identifier of each peak. The processed data for each sample were combined and aligned for each of the RT-m/z pair to generate the final data table. The ion intensities for each peak were then normalized within each sample and the 3-dimensional data, peak identifier (RT-m/z pair), sample name, and ion intensity were analyzed by principle component analysis (PCA). Partial least-squares-discriminant analysis (PLS-DA), a supervised chemometric procedure, was used to define the maximum classification and separation of independent samples.

[7] = Body weight of B16 tumor-bearing mice; assay type: in vivo, C57BL/6J mice; settings: groups CP2 (cisplatin 2 mg/kg BW) and DET10+CP1, i.p. every two days; P<0.05
Protocol: Female C57BL/6J mice (National Laboratory Animal Center, Tainan, Taiwan) were given a standard laboratory diet and distilled water ad libitum and kept on a 12-h light/dark cycle at 22±2° C. In total, 63 mice were randomly divided and assigned into 7 groups. Female C57BL/6J mice received an intravenous (i.v) injection with 1×10^5 B16 cells in 200 μL PBS through the tail vein at Day 0. On Day 1, mice were divided into tumor group, CP2 group, DET10 group, DET10+CP1 group, and CP2→DET10 group. The mice were treated intraperitoneally (i.p.) every two days with 2 mg/kg body weight (BW) cisplatin (CP2), 10 mg/kg BW DET (DET10), DET10 mixed with 1 mg/kg BW cisplatin (DET10+CP1), and with CP2 five times and DET10 five times, then CP2 and DET10 taking turns every two days till the end of the experiments (CP2→DET10 group), respectively. The Pre-DET10 group mice were treated i.p with DET (10 mg/kg BW) every two days two weeks before (Day 14) tumor cells inoculation on Day 0, and continuously treated with DET10 till the end of the experiment. The tumor control mice were treated with vehicle DMSO. The mice in the sham control group were injected i.p. with 20 μL DMSO on Day 1 every 2 days throughout the experimental period. Tumor volumes were measured every 3 days and the body weight recorded once a week.

[8] = tested on: metastatic B16 melanoma tumors; test: Survival of mice carrying metastatic B16 melanoma; assay type: in vivo, C57BL/6J mice; settings: tumor control 33 days
Protocol: All data were expressed as means±SD. For the survival data, the log-rank test was used to determine differences among tumor control, drug and compound treated groups. For other experiments, differences between treatments were determined by ANOVA. A P<0.05 is considered statistically significant.

B16 melanoma cells [9] = test: Cell cycle analysis by flow cytometry (sub-G1 fraction); assay type: cell-based, murine; settings: 24 h, data not shown
Protocol: Both adherent and floating cells were collected, washed with PBS and fixed with 1 mL of ice-cold 70% ethanol overnight at 4° C.

B16 melanoma cells [10] = test: MTT cell viability assay, B16 cell proliferation; assay type: cell-based, murine; settings: 24 h, 37° C., read-out: IC50, inhibition of B16 cell proliferation
Protocol: Human melanocytes and murine B16 melanoma cells obtained from the American Type Culture Collection (ATCC®, MD) were grown overnight in a 10-mm petri-dish at 37° C. in MEM and RPMI medium 1640, respectively, supplemented with 10% heat-inactivated FBS, 100 units/mL penicillin, and 100 μg/mL streptomycin, in a humidified 5% CO2 incubator. Cell viability was measured by MTT-based colorimetric assay. The formula to calculate viable cell (%) is as follows: Cell viability (%)=(sample OD550/control OD550)×100% Synergism of DET and Cisplatin

Human melanocytes = test: MTT cell viability assay, normal melanocytes; assay type: cell-based; settings: 24 h
Protocol: Cell viability was measured by MTT-based colorimetric assay.

[11] = i.p. every two days from Day 1, groups CP2 (cisplatin 2 mg/kg BW), DET10 (DET 10 mg/kg BW), DET10+CP1, CP2→DET10
[12] = Day 21, groups CP2, DET10, DET10+CP1, CP2→DET10, i.p. every two days from Day 1
[13] = groups CP2, DET10, DET10+CP1, CP2→DET10, compared with control tumor-bearing group
[14] = i.p. every two days from Day 1, groups CP2, DET10, DET10+CP1, CP2→DET10
[15] = Pre-DET10 group: DET 10 mg/kg BW i.p. every two days from two weeks before tumor inoculation to end
[16] = pre-DET and DET groups, assignment to group unclear

SMILES: N.N.[Cl][Pt][Cl] [CP, cis-diamminedichloroplatinum(II), reference compound]
- mean bioluminescence intensity compared to tumor group (100%) [1, 11]: 2%
- neutrophil population, times higher than the sham control ([2]; CP2 group): 3.5 times
- neutrophil population, times higher than the tumor group ([2]; CP2 group): 2.55 times
- effect on the peripheral blood cells profile (haematological toxicity) ([2]; groups CP2 and DET10): severe haematological toxicity
- B16 melanoma cell migration (B16 melanoma cells [3]): inhibited
- B16 melanoma cell invasion (B16 melanoma cells [3]): inhibited
- migration velocity of B16 cells (B16 cells): 0.26±0.14 μm/min
- migration distance of B16 cells (B16 cells): 376.6±100 μm
- H&E staining of kidney tissues ([4]; Day 21, CP2 group, cisplatin 2 mg/kg BW i.p. every two days): severe glomerular congestion and tubular epithelial atrophy
- TUNEL-positive (apoptotic) cells in renal tissues [4, 12]: observed mostly
- macrophage/monocyte infiltration in renal tissues (F4/80 immunostaining) [4, 13]: much significant
- plasma BUN ([5]; Day 14, sham control 25.4±4.1): 61.1 ± 4.3 mg/dL
- plasma BUN ([5]; Day 21, sham control 25.1±4.1): 67.3 ± 0.1 mg/dL
- decrease in alanine, aspartate, phenylalanine, and tryptophan in kidney tissues, in comparison with the sham control ([6]; CP2 group): 1.7- to 2.4 fold
- increase in pyruvate, citrulline, creatine, uric acid, hippuric acid, and 5-HIAA in kidney tissues, in comparison with the sham control ([6]; CP2 group): 1.6- to 12.5 fold
- increase in 5-HIAA in kidney tissues ([6]; groups CP alone, DET+CP, CP→DET): 8.6 fold
- body weight of test mice [7]: significantly decreased
- median survival [8, 14]: 43 days
- sub-G1 (apoptotic) cell fraction (B16 melanoma cells [9]): 9%
- IC50 (B16 melanoma cells [10]): 45 µM

SMILES: C=C(C)C(=O)O[C@H]1CC2=C[C@@H](C/C(C)=C/[C@H]3OC(=O)C(=C)[C@H]13)OC2=O [DET, deoxyelephantopin]
- remained bioluminescence intensity relative to tumor control group (100%) [1, 15]: 15%
- remained bioluminescence intensity relative to tumor control group (100%) [1, 11]: 49%
- mean bioluminescence intensity compared to tumor group (100%) [1, 15]: 23%
- mean bioluminescence intensity compared to tumor group (100%) [1, 11]: 45%
- effect on the peripheral blood cells profile (haematological toxicity) ([2]; Pre-DET10 group): did not cause deleterious effect
- effect on the peripheral blood cells profile (haematological toxicity) ([2]; groups CP2 and DET10): did not cause deleterious effect
- levels of neutrophil (N) counts ([2]; groups DET10, DET10+CP1, CP2→DET10): Increase levels
- B16 melanoma cell migration (B16 melanoma cells [3]): inhibited
- B16 melanoma cell invasion (B16 melanoma cells [3]): inhibited
- migration velocity of B16 cells (B16 cells): 0.16±0.06 μm/min
- migration distance of B16 cells (B16 cells): 224.1±85.9 μm
- TUNEL-positive (apoptotic) cells in renal tissues ([4]; Day 21, Pre-DET10 group, DET 10 mg/kg BW from two weeks before tumor inoculation): not detectable
- TUNEL-positive (apoptotic) cells in renal tissues [4, 12]: not detectable
- macrophage/monocyte infiltration in renal tissues (F4/80 immunostaining) ([4]; Pre-DET10 group): little or no detectable inflammatory cell infiltration
- macrophage/monocyte infiltration in renal tissues (F4/80 immunostaining) [4, 13]: little or no detectable inflammatory cell infiltration
- toxicity on normal human melanocytes (Human melanocytes): little or no toxicity
- change of BUN level compared to the sham control group ([5]; DET10 group, DET 10 mg/kg BW i.p. every two days from Day 1): little or no detectable changes
- change of BUN level compared to the sham control group ([5]; Pre-DET10 group, DET 10 mg/kg BW from two weeks before tumor inoculation): little or no detectable changes
- increase in carnitine in kidney tissues [6, 16]: 2.3 fold
- increase in pyruvate in kidney tissues [6, 16]: 1.6 fold
- increase in taurine in kidney tissues [6, 16]: 2.1 fold
- median survival ([8]; Pre-DET10 group: DET 10 mg/kg BW i.p. from two weeks before tumor inoculation): 43 days
- median survival [8, 14]: 39 days
- sub-G1 (apoptotic) cell fraction (B16 melanoma cells [9]): 8.5%
- IC50 (B16 melanoma cells [10]): 4.5 µM
